In general, IC50 refers to the concentration that inhibits the measured activity by half.

The text below walks through data of ChEMBL document CHEMBL1136638, “N-Benzoyl amino acids as LFA-1/ICAM inhibitors 1: amino acid structure-activity relationship” (Bioorg Med Chem Lett, 2003).

Chain of Intercellular adhesion molecule (ICAM-1), Integrin alpha-L/beta-2 (P20701 whole entry): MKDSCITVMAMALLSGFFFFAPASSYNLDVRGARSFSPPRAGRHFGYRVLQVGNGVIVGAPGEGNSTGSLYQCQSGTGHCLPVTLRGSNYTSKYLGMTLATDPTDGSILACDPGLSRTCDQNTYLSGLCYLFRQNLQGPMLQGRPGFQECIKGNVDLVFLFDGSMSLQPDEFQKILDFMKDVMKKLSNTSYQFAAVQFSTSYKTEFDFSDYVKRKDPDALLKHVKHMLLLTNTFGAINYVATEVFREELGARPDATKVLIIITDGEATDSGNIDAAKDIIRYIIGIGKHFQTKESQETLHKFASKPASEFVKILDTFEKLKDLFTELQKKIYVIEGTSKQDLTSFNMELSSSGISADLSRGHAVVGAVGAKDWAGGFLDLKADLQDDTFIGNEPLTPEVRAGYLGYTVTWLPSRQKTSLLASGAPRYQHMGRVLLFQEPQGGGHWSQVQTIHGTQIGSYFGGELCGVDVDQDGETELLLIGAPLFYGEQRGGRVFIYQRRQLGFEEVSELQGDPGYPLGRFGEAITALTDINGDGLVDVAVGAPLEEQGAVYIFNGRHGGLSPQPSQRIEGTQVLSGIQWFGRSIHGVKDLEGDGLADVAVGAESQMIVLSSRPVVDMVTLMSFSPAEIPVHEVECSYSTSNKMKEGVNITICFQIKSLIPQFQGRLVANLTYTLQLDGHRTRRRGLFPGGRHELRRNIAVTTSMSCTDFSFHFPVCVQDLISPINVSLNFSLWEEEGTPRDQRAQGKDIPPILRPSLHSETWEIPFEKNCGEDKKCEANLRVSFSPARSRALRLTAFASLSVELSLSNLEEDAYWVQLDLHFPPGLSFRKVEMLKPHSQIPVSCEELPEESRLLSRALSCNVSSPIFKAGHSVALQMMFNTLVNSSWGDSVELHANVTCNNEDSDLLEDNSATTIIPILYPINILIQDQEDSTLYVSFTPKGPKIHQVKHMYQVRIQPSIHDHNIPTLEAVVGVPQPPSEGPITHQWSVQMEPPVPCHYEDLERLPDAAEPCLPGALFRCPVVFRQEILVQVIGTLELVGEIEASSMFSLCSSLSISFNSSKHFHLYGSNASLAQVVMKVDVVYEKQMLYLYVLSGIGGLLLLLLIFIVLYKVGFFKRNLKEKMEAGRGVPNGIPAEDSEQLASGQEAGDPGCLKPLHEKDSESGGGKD
Chain of Intercellular adhesion molecule (ICAM-1), Integrin alpha-L/beta-2 (P05362 whole entry): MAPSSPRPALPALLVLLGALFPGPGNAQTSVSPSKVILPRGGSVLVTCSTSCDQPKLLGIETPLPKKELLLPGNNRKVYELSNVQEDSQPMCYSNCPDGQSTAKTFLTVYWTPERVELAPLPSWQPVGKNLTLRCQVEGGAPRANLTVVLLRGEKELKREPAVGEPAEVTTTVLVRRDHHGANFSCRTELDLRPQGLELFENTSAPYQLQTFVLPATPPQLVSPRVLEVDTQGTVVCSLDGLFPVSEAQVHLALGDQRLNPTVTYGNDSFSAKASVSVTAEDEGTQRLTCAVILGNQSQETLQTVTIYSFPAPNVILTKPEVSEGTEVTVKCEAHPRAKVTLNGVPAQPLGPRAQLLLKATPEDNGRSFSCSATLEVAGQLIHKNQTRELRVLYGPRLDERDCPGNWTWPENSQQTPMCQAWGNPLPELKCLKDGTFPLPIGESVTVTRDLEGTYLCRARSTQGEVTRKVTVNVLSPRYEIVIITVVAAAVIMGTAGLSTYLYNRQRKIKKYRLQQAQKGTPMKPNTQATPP
Chain of Intercellular adhesion molecule (ICAM-1), Integrin alpha-L/beta-2 (P05107 whole entry): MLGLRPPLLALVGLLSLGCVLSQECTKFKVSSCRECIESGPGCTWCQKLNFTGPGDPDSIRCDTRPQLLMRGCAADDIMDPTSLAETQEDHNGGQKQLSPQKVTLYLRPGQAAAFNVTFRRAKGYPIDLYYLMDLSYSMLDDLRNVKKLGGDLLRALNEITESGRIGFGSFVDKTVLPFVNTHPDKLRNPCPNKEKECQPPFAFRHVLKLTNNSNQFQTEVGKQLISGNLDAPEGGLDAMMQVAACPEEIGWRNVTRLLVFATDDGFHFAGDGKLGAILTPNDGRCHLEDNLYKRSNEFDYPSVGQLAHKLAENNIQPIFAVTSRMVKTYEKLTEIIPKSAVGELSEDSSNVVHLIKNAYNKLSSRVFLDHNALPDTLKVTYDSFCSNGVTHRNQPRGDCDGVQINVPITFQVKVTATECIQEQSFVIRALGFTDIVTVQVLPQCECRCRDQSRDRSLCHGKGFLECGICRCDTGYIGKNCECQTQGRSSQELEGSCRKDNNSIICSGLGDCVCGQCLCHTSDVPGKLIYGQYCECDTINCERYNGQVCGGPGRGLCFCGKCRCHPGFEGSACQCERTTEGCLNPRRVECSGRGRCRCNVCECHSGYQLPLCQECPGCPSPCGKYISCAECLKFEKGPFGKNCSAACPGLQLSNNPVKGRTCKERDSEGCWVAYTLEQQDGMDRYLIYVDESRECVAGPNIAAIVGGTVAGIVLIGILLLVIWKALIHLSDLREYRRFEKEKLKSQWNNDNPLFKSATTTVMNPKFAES

This experiment addresses Intercellular adhesion molecule (ICAM-1), Integrin alpha-L/beta-2 (Homo sapiens, UniProt P05107+P05362+P20701). The experiment can be described thus: Concentration required to inhibit binding of ICAM-1 to LFA-1 (Leukocyte function-associated antigen-1), evaluated ELISA. The experiment is classed as protein-complex assay. (In general: ELISA stands for enzyme-linked immunosorbent assay.)
For `C[C@@H](O)[C@H](NC(=O)c1ccccc1Br)C(=O)O`, the IC50 turned out to be 3.84 µM. Consider `CC(C)C[C@H](NC(=O)c1ccccc1Br)C(=O)O`, for which the IC50 worked out at 54.3 µM. The molecule `COc1ccc2[nH]cc(C[C@H](NC(=O)c3ccccc3Br)C(=O)O)c2c1` yielded an IC50 of 2.77 µM.

Regarding `O=C(N[C@@H](CCc1ccccc1)C(=O)O)c1ccccc1Br`, the IC50 turned out to be 5.09 µM. Take `O=C(N[C@@H](Cc1c[nH]c2ccc(F)cc12)C(=O)O)c1ccccc1Br`: the IC50 was found to be 10.8 µM. The value for `O=C(N[C@@H](Cc1ccc(-c2ccccc2)cc1)C(=O)O)c1ccccc1Br` was 50.5 µM; that for `O=C(N[C@@H](Cc1c[nH]c2ccc(Br)cc12)C(=O)O)c1ccccc1Br` was 28.4 µM; that for `O=C(N[C@H](Cc1cccc2ccccc12)C(=O)O)c1ccccc1Br` was > 200 µM.

Consider `CSCC[C@H](NC(=O)c1ccccc1Br)C(=O)O`, for which the IC50 was 7.46 µM.

In turn, `C[C@H](NC(=O)c1ccccc1Br)C(=O)O` returned an IC50 of 6.64 µM. Under `O=C(N[C@@H](Cc1c[nH]c2ccccc12)C(=O)O)c1ccccc1Br` stands 1.7 µM; under `O=C(O)CC[C@H](NC(=O)c1ccccc1Br)C(=O)O`, 30.1 µM. Take `NC(=O)C[C@H](NC(=O)c1ccccc1Br)C(=O)O`: the IC50 is 1.08 µM. In turn, `O=C(N[C@@H](Cc1ccc2ccccc2c1)C(=O)O)c1ccccc1Br` came in with an IC50 of 24.4 µM. On to `O=C(N[C@H](Cc1ccc2ccccc2c1)C(=O)O)c1ccccc1Br`, for which the half-inhibitory concentration (IC50) worked out at 243 µM. For `O=C(N[C@H](Cc1ccccc1)C(=O)O)c1ccccc1Br`, the IC50 is 280 µM. For the molecule `NC(=O)CC[C@H](NC(=O)c1ccccc1Br)C(=O)O`, the IC50 was determined as 1.77 µM. In turn, `NCCCC[C@H](NC(=O)c1ccccc1Br)C(=O)O` displayed an IC50 of 1.21 µM.

As to `O=C(N[C@@H](Cc1cnc[nH]1)C(=O)O)c1ccccc1Br`, the IC50 worked out at 0.75 µM.

For the molecule `N=C(N)NCCC[C@H](NC(=O)c1ccccc1Br)C(=O)O`, the half-inhibitory concentration (IC50) worked out at 2.71 µM.

Consider `O=C(N[C@@H](Cc1ccccc1)C(=O)O)c1ccccc1Br`, for which the concentration for half-maximal inhibition (IC50) turned out to be 4.89 µM.

`O=C(N[C@H](CO)C(=O)O)c1ccccc1Br` gave a half-inhibitory concentration (IC50) of 72.6 µM. The molecule `O=C(N[C@@H](Cc1c[nH]c2ccccc12)C(=O)NO)c1ccccc1Br` showed an IC50 of 140 µM. Molecule `O=C(N[C@@H](Cc1c[nH]c2ncccc12)C(=O)O)c1ccccc1Br` gave an IC50 of 63.8 µM. The value for `NC(=O)[C@H](Cc1c[nH]c2ccccc12)NC(=O)c1ccccc1Br` was > 1000 µM; that for `O=C(N[C@@H](CS)C(=O)O)c1ccccc1Br` was 4.26 µM; that for `O=C(N[C@@H](Cc1c[nH]c2cc(F)ccc12)C(=O)O)c1ccccc1Br` was 7.64 µM. Under `O=C(N[C@@H](Cc1ccc(O)cc1)C(=O)O)c1ccccc1Br` stands 1.09 µM; under `O=C(O)[C@@H]1CCCN1C(=O)c1ccccc1Br`, > 1000 µM.

Regarding `CC[C@H](C)[C@H](NC(=O)c1ccccc1Br)C(=O)O`, the half-inhibitory concentration (IC50) is 106 µM.

On to `COC(=O)[C@H](Cc1c[nH]c2ccccc12)NC(=O)c1ccccc1Br`, for which the IC50 is > 1000 µM. Under `N#Cc1ccc(C[C@H](NC(=O)c2ccccc2Br)C(=O)O)cc1` stands 36.8 µM; under `O=C(O)C[C@H](NC(=O)c1ccccc1Br)C(=O)O`, > 200 µM; under `CC(C)[C@H](NC(=O)c1ccccc1Br)C(=O)O`, 11.3 µM.

For `C[C@@H](NC(=O)c1ccccc1Br)C(=O)O`, the concentration for half-maximal inhibition (IC50) was determined as 57.5 µM.

Molecule `O=C(O)CNC(=O)c1ccccc1Br` registered a half-maximal inhibitory concentration (IC50) of 314 µM. The value for `O=C(NCCc1c[nH]c2ccccc12)c1ccccc1Br` was > 1000 µM; that for `O=C(N[C@@H](Cc1cccs1)C(=O)O)c1ccccc1Br` was 5.5 µM. As to `O=C(N[C@@H](CO)C(=O)O)c1ccccc1Br`, the half-inhibitory concentration (IC50) was 6.15 µM. The value for `O=C(N[C@@H](Cc1cccc2ccccc12)C(=O)O)c1ccccc1Br` was 15.9 µM; that for `O=C(N[C@H](Cc1c[nH]c2ccccc12)C(=O)O)c1ccccc1Br` was 76.6 µM. For the molecule `O=C(N[C@@H](Cc1c[nH]c2ccc(O)cc12)C(=O)O)c1ccccc1Br`, the IC50 worked out at 24.2 µM.
